Data from ChEMBL document CHEMBL4513144, “CO-ADD screening of University of Central Lancashire (UK) compounds”.
Converted amounts (≈) assume the structure as drawn.

Assays:
Pseudomonas aeruginosa = test: microbe, parasite or virus in culture; conditions: ATCC 27853, 18 h, ASSAY_TEST Inhibition of Bacterial Growth, detection method Absorption (OD600), MEDIA CAMHB, plate type 384well, NBS, CORNING #3640
Description: Antibacterial activity against Pseudomonas aeruginosa ATCC 27853 (CO-ADD:GN_042); MIC in CAMBH media using NBS plates, by OD(600)

Klebsiella pneumoniae = test: microbe, parasite or virus in culture; conditions: ATCC 700603, 18 h, ASSAY_TEST Inhibition of Bacterial Growth, detection method Absorption (OD600), MEDIA CAMHB, plate type 384well, NBS, CORNING #3640
Description: Antibacterial activity against Klebsiella pneumoniae MDR ATCC 70063 (CO-ADD:GN_003); MIC in CAMBH media using NBS plates, by OD(600)

Candida albicans = test: microbe, parasite or virus in culture; conditions: ATCC 90028, ASSAY_TEST Inhibition of Fungal Growth, detection method Absorption (OD530), plate type 384well, NBS, CORNING #3640
Description: Antifungal activity against Candida albicans ATCC 90028 (CO-ADD:FG_001); MIC in YNB media using NBS plates, by OD630

Acinetobacter baumannii = test: microbe, parasite or virus in culture; conditions: ATCC 19606, 18 h, ASSAY_TEST Inhibition of Bacterial Growth, detection method Absorption (OD600), MEDIA CAMHB, plate type 384well, NBS, CORNING #3640
Description: Antibacterial activity against Acinetobacter baumannii ATCC 19606 (CO-ADD:GN_034); MIC in CAMBH media using NBS plates, by OD600

Escherichia coli = test: microbe, parasite or virus in culture; conditions: ATCC 25922, 18 h, ASSAY_TEST Inhibition of Bacterial Growth, detection method Absorption (OD600), MEDIA CAMHB, plate type 384well, NBS, CORNING #3640
Description: Antibacterial activity against Escherichia coli ATCC 25922 (CO-ADD:GN_001); MIC in CAMBH media using NBS plates, by OD(600)

HEK293 = test: cells; type: functional; conditions: Homo sapiens, ATCC CRL1573, HEK293; ASSAY_TEST Inhibition of Cell Viability; detection method Resazurin; Fluorescence (ex560/em590); MEDIA DMEM with 10% FBS; plate type 384well; TC; CORNING #3712; time 18 hr
Staphylococcus aureus = test: microbe, parasite or virus in culture; conditions: ATCC 43300, 18 h, ASSAY_TEST Inhibition of Bacterial Growth, detection method Absorption (OD600), MEDIA CAMHB, plate type 384well, NBS, CORNING #3640
Description: Antibacterial activity against Staphylococcus aureus MRSA ATCC 43300 (CO-ADD:GP_020); MIC in CAMBH media, using NBS plates, by OD(600)

Description for Cryptococcus neoformans: Antifungal activity against Cryptococcus neoformans H99 ATCC 208821 (CO-ADD:FG_002); MIC in YNB media using NBS plates, by Resazurin OD(600-570)

- MIC (Cryptococcus neoformans): > 32 µg/mL
- MIC (Pseudomonas aeruginosa): > 32 µg/mL
- MIC (Klebsiella pneumoniae): > 32 µg/mL
- MIC (Candida albicans): > 32 µg/mL
- MIC (Acinetobacter baumannii): > 32 µg/mL
- MIC (Escherichia coli): > 32 µg/mL
- MIC (Staphylococcus aureus): > 32 µg/mL
Structure (SMILES): Oc1ccccc1-c1cc2ccccc2[nH]1 [2-(2'-HYDROXYPHENYL)-1H-INDOLE]
- CC50 (HEK293): 0.256 µg/mL (≈ 1.22 µM)
